Test results published in patent publication US9487479B2, “Small molecule inhibitors of N-terminus activation of the androgen receptor” (The University of British Columbia, priority 2008, dated 2016).

Key:
[1] = tested on: LNCaP cells; assay: Androgen-dependent proliferation of LNCaP cells (BrdU incorporation); format: cell-based, human; settings: 5 μg/ml, 1 hr before R1881 0.1 nM, 3 days
Description: BrdU incorporation was measured 3 days later to indicate changes in proliferation in response to androgen (see FIG. 3B).

[2] = biological target: T1, progesterone receptor (PR) (Homo sapiens, UniProt P06401); assay: PRE-luciferase reporter assay in LNCaP cells transfected with PRβ; format: cell-based; settings: 5 μg/ml, progesterone 10 nM, 24 h
T1 construct: Cells were co-transfected with expression plasmids for full-length hGR and PRβ; expressed in transfected cells; host or cells: LNCaP cells
T1 sequence (P06401 1-933): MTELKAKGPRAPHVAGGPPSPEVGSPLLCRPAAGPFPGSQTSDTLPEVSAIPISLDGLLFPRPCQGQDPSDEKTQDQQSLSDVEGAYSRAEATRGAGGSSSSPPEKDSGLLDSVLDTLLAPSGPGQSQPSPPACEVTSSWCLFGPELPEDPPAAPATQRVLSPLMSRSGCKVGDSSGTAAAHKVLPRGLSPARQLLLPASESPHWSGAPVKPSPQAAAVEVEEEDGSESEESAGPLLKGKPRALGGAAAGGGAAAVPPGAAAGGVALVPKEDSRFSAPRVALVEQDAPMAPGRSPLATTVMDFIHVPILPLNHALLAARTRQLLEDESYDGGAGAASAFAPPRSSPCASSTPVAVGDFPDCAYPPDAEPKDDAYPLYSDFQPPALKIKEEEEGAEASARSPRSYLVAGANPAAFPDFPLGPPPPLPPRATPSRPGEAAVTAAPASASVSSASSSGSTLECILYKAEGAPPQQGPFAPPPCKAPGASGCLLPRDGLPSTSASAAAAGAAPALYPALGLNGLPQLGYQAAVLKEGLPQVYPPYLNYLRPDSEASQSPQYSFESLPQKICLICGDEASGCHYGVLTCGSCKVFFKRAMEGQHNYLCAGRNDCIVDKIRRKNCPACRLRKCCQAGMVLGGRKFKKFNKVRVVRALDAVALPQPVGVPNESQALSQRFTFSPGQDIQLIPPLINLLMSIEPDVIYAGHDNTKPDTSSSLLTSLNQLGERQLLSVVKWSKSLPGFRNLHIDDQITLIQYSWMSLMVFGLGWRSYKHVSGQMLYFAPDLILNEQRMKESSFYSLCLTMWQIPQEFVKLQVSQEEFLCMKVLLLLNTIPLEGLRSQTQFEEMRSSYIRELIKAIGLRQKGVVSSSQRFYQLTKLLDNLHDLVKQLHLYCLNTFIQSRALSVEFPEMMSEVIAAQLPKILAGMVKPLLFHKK
Description: White bars represent no steroid (ethanol control). Wherein glucocorticoid receptor (GR) and progesterone receptor (PR).
Sequence similarities of amino acids in the AR with related human steroid receptors (glucocorticoid receptor (GR) and progesterone receptor (PR)) are significant in some domains such as the DNA-binding-domain (DBD). Although the AR-NTD shares less than 15% homology with the PR and GR, these receptors do interact with some of the same proteins such as SRC-1 (steroid receptor coactivator-1). Therefore, reporter gene assays were used to determine if candidate compounds that block AR activity have any effect on GR and PR transcriptional activity. Cells were co-transfected with expression plasmids for full-length hGR and PRβ and the relative reporter (i.e., pGR-Luc or PRE-E1b-Luc reporters). Cells were then treated with ethanol vehicle, dexamethasone (GR), 4-pregnene-3,20 dione (progesterone) (PR) followed by measurement of luciferase activity.

[3] = tested on: LNCaP xenografts; assay: LNCaP subcutaneous xenograft model in castrated NOD-SCID mice; format: in vivo; settings: intratumoral 30 mg/kg every 3 days
Description: CB3.1 reduced the size of the tumors while DMSO-treated tumors continued to grow. Animals were castrated 7 days before 1st injection and tumor volume was set to 100%. Injections were made every 3 days at a dose of 30 mg/kg body weight every 3 days. B. Photograph is of a representative harvested LNCaP xenograft treated with CB3.1. The black bar represents 10 mm.
Six to eight-week old male athymic SCID mice were inoculated subcutaneously in the flank region via a 27-gauge needle with a 150 μl suspension of LNCaP or PC3 human prostate cancer cells (1×10^6 cells). The inoculations took place while the animal was under isofluorane anaesthesia. The tumor take rate is approximately 75%. Mice bearing tumors of 100 mm^3 were randomly assigned to treatment groups. Castration was performed as described below. Tumor volume (formula: L×W×H×0.5236) was measured in mice bearing LNCaP subcutaneous tumors that became palpable or visible and at least 40 mm^3. The animals were monitored daily and tumors were measured every 5 days.
Androgen withdrawal was completed by castration. Under isoflurane anaesthesia, a 5 mm vertical incision was used to gently withdraw the epididymal fat pad, to which the testis were attached, and to remove the testis from body. The cord connecting the testis to the blood supply was ligated with a suture, then cut. The cord was then returned to the abdominal cavity. Surgical suture was used to close the incision. To relieve pain, buprenorphine (0.05 mg/kg) was injected prior to surgery.
The subcutaneous xenograft model was used to test whether sintokamides that inhibit activation of the androgen receptor in vitro have any effect on these tumors. CB3.1 was tested in vivo using the LNCaP subcutaneous xenograft model. […] LNCaP human prostate cancer cells express endogenous androgen receptor (AR) and prostate-specific antigen (PSA), and progress to androgen independence in castrated hosts. LNCaP cells (10^6/ml) were implanted subcutaneously into NOD-SCID male mice that were at least 8 weeks in age. […]

Question: Which “androgen-induced proliferation (BrdU incorporation)” value [1] does the source give for `CCC(=O)N[C@H](C[C@H](C)C(Cl)(Cl)Cl)C(=O)N1C(=O)C=C(OC)[C@@H]1C[C@H](C)C(Cl)Cl` [CB3.1, Sintokamide A] here?
Answer: Its value is “reduced proliferation”.

Question: And the “PRE-luciferase activity in response to ligand” value [2]?
Answer: Its value is “did not inhibit”.

Question: And the “tumor volume relative to the tumor volume on the day of the 1st injection” value ([3]; 15 days after first injection, castrated mice)?
Answer: Its value is 111.81%±38.12.

Question: And the “serum PSA” value ([3]; day 15 after the 1st injection)?
Answer: The value was 98.47%±170.51.

Question: What about the “effect on tumor volume” value ([3]; castrated mice) of the same molecule?
Answer: The value was “showed a reduction of tumor volume”.
